Test results from patent US6737383B1, “Herbicidal oxadiazolidines” (priority 1999, dated 2004).

What was measured:
[1] = system: bedstraw; experiment: Test B pre/postemergence bedstraw; assay type: in vivo, Galium aparine; details: Preemergence; for Bedstraw plant response rating: scale of 0 to 10 where 0 is no effect and 10 is complete control
In short: (§1)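 Test chemicals in a non-phytotoxic solvent mixture with surfactant were sprayed preemergence onto planted seeds and postemergence onto plants 2 to 18 cm tall (1- to 4-leaf stage). After twelve to sixteen days in a greenhouse, injury was visually rated against untreated controls from 0 (no effect) to 10 (complete control).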

[2] = system: blackgrass; experiment: Test B pre/postemergence blackgrass; assay type: in vivo, Alopecurus myosuroides
In short: as §1

[3] = system: surinam grass; experiment: Test B pre/postemergence surinam grass; assay type: in vivo, Brachiaria decumbens
In short: as §1

[4] = system: cocklebur; experiment: Test B pre/postemergence cocklebur; assay type: in vivo, Xanthium strumarium; details: for Cocklebur plant response rating: scale of 0 to 10 where 0 is no effect and 10 is complete control
In short: as §1

[5] = system: corn; experiment: Test B pre/postemergence corn; assay type: in vivo, Zea mays; details: for Corn plant response rating: scale of 0 to 10 where 0 is no effect and 10 is complete control
In short: as §1

[6] = system: giant foxtail; experiment: Test B pre/postemergence giant foxtail; assay type: in vivo, Setaria faberii; details: for Giant foxtail plant response rating: scale of 0 to 10 where 0 is no effect and 10 is complete control
In short: as §1

[7] = system: morningglory; experiment: Test B pre/postemergence morningglory; assay type: in vivo, Ipomoea hederacea; details: for Morningglory plant response rating: scale of 0 to 10 where 0 is no effect and 10 is complete control
In short: as §1

[8] = system: pigweed; experiment: Test B pre/postemergence pigweed; assay type: in vivo, Amaranthus retroflexus; details: for Redroot pigweed plant response rating: scale of 0 to 10 where 0 is no effect and 10 is complete control
In short: as §1

[9] = system: rape; experiment: Test B pre/postemergence rape; assay type: in vivo, Brassica napus; details: for Rape plant response rating: scale of 0 to 10 where 0 is no effect and 10 is complete control
In short: as §1

[10] = system: soybean; experiment: Test B pre/postemergence soybean; assay type: in vivo, Glycine max; details: for Soybean plant response rating: scale of 0 to 10 where 0 is no effect and 10 is complete control
In short: as §1

[11] = system: sugar beet; experiment: Test B pre/postemergence sugar beet; assay type: in vivo, Beta vulgaris; details: for Sugarbeets plant response rating: scale of 0 to 10 where 0 is no effect and 10 is complete control
In short: as §1

[12] = system: velvetleaf; experiment: Test B pre/postemergence velvetleaf; assay type: in vivo, Abutilon theophrasti; details: for Velvetleaf plant response rating: scale of 0 to 10 where 0 is no effect and 10 is complete control
In short: as §1

[13] = system: wheat; experiment: Test B pre/postemergence wheat; assay type: in vivo, Triticum aestivum; details: for Wheat plant response rating: scale of 0 to 10 where 0 is no effect and 10 is complete control
In short: as §1

[14] = system: wild oat; experiment: Test B pre/postemergence wild oat; assay type: in vivo, Avena fatua; details: for Wild oats plant response rating: scale of 0 to 10 where 0 is no effect and 10 is complete control
In short: as §1

[15] = system: rice; experiment: Test B flood test rice; assay type: in vivo, Oryza sativa
In short: (§2)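 Read-out is a visual response score from 0 (no effect) to 10 (complete control), assigned by comparison with untreated controls. Treatment was applied at the 2-leaf stage, and plants stayed in the greenhouse for twelve to sixteen days before scoring.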

[16] = system: smallflower flatsedge; experiment: Test B flood test smallflower flatsedge; assay type: in vivo, Cyperus difformis
In short: as §2

[17] = Postemergence, Rate 125 g/ha, scale 0 to 10, 0 is no effect, 10 is complete control
[18] = Preemergence, Rate 62 g/ha, scale 0 to 10 (0 no effect, 10 complete control)
[19] = Preemergence, Rate 250 g/ha, scale of 0 to 10 where 0 is no effect and 10 is complete control
[20] = Preemergence, Rate 500 g/ha, scale of 0 to 10 where 0 is no effect and 10 is complete control
[21] = Rate 62 g/ha, Postemergence, scale of 0 to 10 where 0 is no effect and 10 is complete control
[22] = Rate 250 g/ha, Postemergence, scale of 0 to 10 where 0 is no effect and 10 is complete control
[23] = Rate 500 g/ha, Postemergence, scale 0 to 10, 0 no effect, 10 complete control
[24] = Postemergence (flood test), Rate 125 g/ha, scale 0 to 10, 0 is no effect, 10 is complete control
[25] = Rate 62 g/ha, Postemergence (flood test species), scale of 0 to 10 where 0 is no effect and 10 is complete control
[26] = Rate 62 g/ha, flood test species, Pre-emergence, visual evaluation after twelve to sixteen days
[27] = Rate 125 g/ha, Pre-emergence, flood test species, scale 0 to 10 where 0 is no effect and 10 is complete control
[28] = Rate 250 g/ha, Pre-emergence, flood-test species, scale 0 to 10, 0 is no effect, 10 is complete control
[29] = Rate 500 g/ha, listed under Postemergence (flood test species), scale 0 to 10, 0 no effect, 10 complete control
[30] = Rate 500 g/ha, Pre-emergence, flood test species, scale 0 to 10 (0 no effect, 10 complete control)

SMILES: CC(C)N(C(=O)n1oc(=O)n(C2CCC2)c1=O)c1ccc(F)cc1 [Compound 350]
- Plant response rating, Bedstraw ([1]; Rate 62 g/ha, scale 0 to 10 (0 no effect, 10 complete control)): 10
- Bedstraw plant response rating (0 to 10 scale) ([1]; Rate 125 g/ha): 10
- Bedstraw plant response rating ([1]; Rate 250 g/ha): 10
- Bedstraw plant response rating ([1]; Rate 500 g/ha): 10
- Plant response rating, Blackgrass [2, 17]: 4
- Plant response rating, Blackgrass [2, 18]: 4
- Blackgrass plant response rating (0 to 10 scale) ([2]; Preemergence, Rate 125 g/ha): 5
- Blackgrass plant response rating [2, 19]: 8
- Blackgrass plant response rating [2, 20]: 8
- Blackgrass plant response rating [2, 21]: 4
- Plant response rating, Blackgrass [2, 22]: 7
- Plant response rating, Blackgrass [2, 23]: 7
- Plant response rating, B. signalgrass [3, 17]: 0
- Plant response rating, B. signalgrass [3, 18]: 0
- B. signalgrass plant response rating (0 to 10 scale, 0 is no effect, 10 is complete control) ([3]; Preemergence, Rate 125 g/ha): 0
- B. signalgrass plant response rating [3, 19]: 2
- B. signalgrass plant response rating [3, 20]: 4
- B. signalgrass plant response rating [3, 21]: 0
- Plant response rating, B. signalgrass [3, 22]: 0
- Plant response rating, B. signalgrass [3, 23]: 4
- Plant response rating, Cocklebur [4, 17]: 0
- Plant response rating, Cocklebur [4, 18]: 0
- Cocklebur plant response rating (0 to 10 scale) ([4]; Preemergence, Rate 125 g/ha): 0
- Cocklebur plant response rating ([4]; Preemergence, Rate 250 g/ha): 0
- Cocklebur plant response rating ([4]; Preemergence, Rate 500 g/ha): 0
- Cocklebur plant response rating ([4]; Rate 62 g/ha, Postemergence): 0
- Plant response rating, Cocklebur [4, 23]: 3
- Plant response rating, Corn [5, 17]: 0
- Plant response rating, Corn [5, 18]: 0
- Corn plant response rating (0 to 10 scale) ([5]; Preemergence, Rate 125 g/ha): 0
- Corn plant response rating ([5]; Preemergence, Rate 250 g/ha): 0
- Corn plant response rating ([5]; Preemergence, Rate 500 g/ha): 7
- Corn plant response rating ([5]; Rate 62 g/ha, Postemergence): 0
- Plant response rating, Corn [5, 23]: 0
- Plant response rating, Giant foxtail [6, 17]: 8
- Plant response rating, Giant foxtail [6, 18]: 10
- Giant foxtail plant response rating (0 to 10 scale) ([6]; Preemergence, Rate 125 g/ha): 10
- Giant foxtail plant response rating ([6]; Preemergence, Rate 250 g/ha): 10
- Giant foxtail plant response rating ([6]; Preemergence, Rate 500 g/ha): 10
- Giant foxtail plant response rating ([6]; Rate 62 g/ha, Postemergence): 5
- Plant response rating, Giant foxtail [6, 23]: 9
- Plant response rating, Morningglory [7, 17]: 6
- Plant response rating, Morningglory [7, 18]: 0
- Morningglory plant response rating (0 to 10 scale) ([7]; Preemergence, Rate 125 g/ha): 0
- Morningglory plant response rating ([7]; Preemergence, Rate 250 g/ha): 0
- Morningglory plant response rating ([7]; Preemergence, Rate 500 g/ha): 2
- Morningglory plant response rating ([7]; Rate 62 g/ha, Postemergence): 3
- Plant response rating, Morningglory [7, 23]: 9
- Plant response rating, Redroot pigweed [8, 17]: 0
- Plant response rating, Redroot pigweed [8, 18]: 4
- Redroot pigweed plant response rating (0 to 10 scale) ([8]; Preemergence, Rate 125 g/ha): 10
- Redroot pigweed plant response rating ([8]; Preemergence, Rate 250 g/ha): 10
- Redroot pigweed plant response rating ([8]; Preemergence, Rate 500 g/ha): 10
- Redroot pigweed plant response rating ([8]; Rate 62 g/ha, Postemergence): 0
- Plant response rating, Redroot pigweed [8, 23]: 3
- Plant response rating, Rape [9, 17]: 0
- Plant response rating, Rape [9, 18]: 0
- Rape plant response rating (0 to 10 scale) ([9]; Preemergence, Rate 125 g/ha): 0
- Rape plant response rating ([9]; Preemergence, Rate 250 g/ha): 7
- Rape plant response rating ([9]; Preemergence, Rate 500 g/ha): 10
- Rape plant response rating ([9]; Rate 62 g/ha, Postemergence): 0
- Plant response rating, Rape [9, 23]: 2
- Plant response rating, Soybean [10, 17]: 1
- Plant response rating, Soybean [10, 18]: 0
- Soybean plant response rating (0 to 10 scale) ([10]; Preemergence, Rate 125 g/ha): 0
- Soybean plant response rating ([10]; Preemergence, Rate 250 g/ha): 0
- Soybean plant response rating ([10]; Preemergence, Rate 500 g/ha): 2
- Soybean plant response rating ([10]; Rate 62 g/ha, Postemergence): 1
- Plant response rating, Soybean [10, 23]: 3
- Plant response rating, Sugarbeets [11, 17]: 0
- Plant response rating, Sugarbeets [11, 18]: 2
- Sugarbeets plant response rating (0 to 10 scale) ([11]; Preemergence, Rate 125 g/ha): 2
- Sugarbeets plant response rating ([11]; Preemergence, Rate 250 g/ha): 4
- Sugarbeets plant response rating ([11]; Preemergence, Rate 500 g/ha): 9
- Sugarbeets plant response rating ([11]; Rate 62 g/ha, Postemergence): 0
- Plant response rating, Sugarbeets [11, 23]: 0
- Plant response rating, Velvetleaf [12, 17]: 0
- Plant response rating, Velvetleaf [12, 18]: 2
- Velvetleaf plant response rating (0 to 10 scale) ([12]; Preemergence, Rate 125 g/ha): 2
- Velvetleaf plant response rating ([12]; Preemergence, Rate 250 g/ha): 4
- Velvetleaf plant response rating ([12]; Preemergence, Rate 500 g/ha): 6
- Velvetleaf plant response rating ([12]; Rate 62 g/ha, Postemergence): 0
- Plant response rating, Velvetleaf [12, 23]: 6
- Plant response rating, Wheat [13, 17]: 0
- Plant response rating, Wheat [13, 18]: 0
- Wheat plant response rating (0 to 10 scale) ([13]; Preemergence, Rate 125 g/ha): 0
- Wheat plant response rating ([13]; Preemergence, Rate 250 g/ha): 2
- Wheat plant response rating ([13]; Preemergence, Rate 500 g/ha): 3
- Wheat plant response rating ([13]; Rate 62 g/ha, Postemergence): 0
- Plant response rating, Wheat [13, 23]: 2
- Plant response rating, Wild oats [14, 17]: 0
- Plant response rating, Wild oats [14, 18]: 0
- Wild oats plant response rating (0 to 10 scale) ([14]; Preemergence, Rate 125 g/ha): 3
- Wild oats plant response rating ([14]; Preemergence, Rate 250 g/ha): 5
- Wild oats plant response rating ([14]; Preemergence, Rate 500 g/ha): 7
- Wild oats plant response rating ([14]; Rate 62 g/ha, Postemergence): 0
- Plant response rating, Wild oats [14, 23]: 5
- Plant response rating, Rice [15, 24]: 0
- Rice plant response rating [15, 25]: 0
- Plant response rating, Rice (0 to 10 scale, 0 is no effect, 10 is complete control) [15, 26]: 0
- Rice plant response rating [15, 27]: 0
- Rice plant response rating [15, 28]: 0
- Plant response rating, Rice [15, 29]: 0
- Rice plant response rating [15, 30]: 0
- Plant response rating, S. Flatsedge [16, 24]: 2
- S. Flatsedge plant response rating [16, 25]: 0
- Plant response rating, S. Flatsedge (0 to 10 scale, 0 is no effect, 10 is complete control) [16, 26]: 0
- S. Flatsedge plant response rating [16, 27]: 0
- S. Flatsedge plant response rating [16, 28]: 0
- Plant response rating, S. Flatsedge [16, 29]: 8
- S. Flatsedge plant response rating [16, 30]: 0
